Two compounds from patent publication US20240342133A1, “TOPICAL STATIN FORMULATION FOR TREATMENT OF LICHEN SCLEROSUS AND PSORIASIS” (TBT PHARMA, INC, priority 2023, published 2024) can be followed below.

Molecules are shown by their SMILES.

One assay has as its system cortisol. The experiment in a line: Cortisol levels in primary human keratinocyte cultures and organotype wound healing models. The class given is cell-based. The settings on record: after treatment. From the text: FIG. 4. Cortisol levels in organotype wound models after treatment with mevastatin. […] Without cholesterol, local cortisol production should drop because cholesterol is required for cortisol synthesis. This was confirmed in primary human keratinocyte cultures and organotype wound healing models after treatment with mevastatin.

The subject of the next assay is c-myc. The experiment in a line: c-myc expression in human skin ex-vivo (chronic wound) cultures and organotype wound models. It is filed as cell-based. As to conditions: samples from chronic wounds, cultured, before and after treatment; relatively short time frame. From the text:
FIG. 3. C-myc expression in ex-vivo cultures before and after treatment with mevastatin. […] Samples are directly from chronic wounds, cultured, and measured c-myc levels before and after treatment with mevastatin. […] A large effect of high c-myc levels is that they cause abnormal differentiation and migration of keratinocytes.

Assay [1] has as its system Primary human keratinocytes. The assay can be described thus: Keratinocyte migration scratch test. The settings on record: varying doses. The class given is cell-based.
The subject of the next assay is chronic wounds. The assay can be described thus: Full thickness diabetic porcine wound model. The class given is in vivo. As to conditions: for increase in wound vascularity (% vascularity): versus vehicle, day 10, PD31 stain. The method, then: FIG. 6. Histology sections of optimal dose at day 10 show increased epithelialization and vascularization. FIG. 7. Percent vascularity at day 10 determined by PD31 stain. […] Mevastatin, simvastatin, and a combination were tested in a full thickness diabetic porcine model. FIG. 6 confirms that statins are an effective treatment of chronic wounds with a known mechanism of action. The compounds show increased epithelialization and vascularization.

The subject of a further assay is MRSA. The assay can be described thus: MRSA load in ex-vivo wound cultures. Also on record: species or system methicillin resistant staph aureus. As to conditions: after 24 hours.
Where [2] appears, read: full thickness diabetic porcine model, day 10.

As for `CC[C@H](C)C(=O)O[C@H]1CCC=C2C=C[C@H](C)[C@H](CC[C@@H]3C[C@@H](O)CC(=O)O3)[C@H]21` [mevastatin], the local cortisol production result with cortisol is on record as “drop”. The c-myc levels result with c-myc is given as “drop drastically”. Moreover, in assay [1], the keratinocyte migration result is “increasing migration levels with dose”. Besides, in the assay with chronic wounds (setting [2]), the epithelialization entry is “increased” and the vascularization result is recorded as “increased”. In addition, the “increase in wound vascularity (% vascularity)” value in the assay on chronic wounds is on record as around 3 fold. The MRSA load result in the assay with MRSA is listed as “drastic reduction”.
For the compound `CCC(C)(C)C(=O)O[C@H]1C[C@@H](C)C=C2C=C[C@H](C)[C@H](CC[C@@H]3C[C@@H](O)CC(=O)O3)[C@H]21` [simvastatin], the “increase in wound vascularity (% vascularity)” value with chronic wounds is on record as around 3 fold.
